Reference: patent publication US11000505B2 (priority 2010, dated 2021)
Several values for one entry are separate records, joined by “and”; a condition that tells them apart may be missing. Equal values may be shown once.

Columns and labels:
[1] = system: neonatal mouse hypoxia model; assay: Neonatal mouse hypoxia model: mortality, development, neurobehavior (Example 5); format: in vivo, C57BL/6J mice
From the text: The protocol was approved by the Institutional Animal Care and Use Committee (IACUC) of the University of Pennsylvania and carried out in accordance with National Institutes of Health guidelines for the use of animals. C57BL/6J mice were purchased from The Jackson Laboratory (Bar Harbor, Me.) and inbreed pups were used for subsequent experiments. Pups were housed under a 12-hour light/dark cycle after birth with free access to food and water throughout the study. Pups from different litters were divided into 3 groups randomly. Pups in the control group (n=11) received i.p. injection of 17% dimethyl sulfoxide (DMSO) without hypoxia insult; the hypoxia group (n=46) received i.p. injection of 17% DMSO and hypoxia insult; SA group (n=26) received i.p. injection of 0.5 mg/kg SA in 17% DMSO and hypoxia insult. Pups of low weight (<1.2 g) were excluded from the study.
The hypoxic insult was induced on postnatal day 1. After i.p. injections, pups were put into a glass chamber in a water bath where the temperature was maintained at 37° C. The chamber was tightly closed and filled with 8% oxygen with balanced nitrogen. Following 120 minutes of hypoxic gas exposure, the chamber was opened and the pups were exposed to the air. Chest compressions and limb stretches were performed for up to 20 minutes to regain spontaneous breathing. The pups that successfully regained spontaneous breathing were then returned to their mothers after recovery for 30 minutes.
The neonate mouse will be considered as non-survival if no spontaneous breathing can be restored for 20 min resuscitation immediately after anoxic insult. The mortality rate will be calculated as: […]=(number of mice in a group-number of non-survival)/number of mice in a group.
From postnatal day 2 to postnatal day 21, the pups were weighed and motor behavior observation was performed every day. Pups were observed individually in a plastic testing box. Each of the following behaviors was recorded for 3 minutes: crawling, walking, running, head point and sniffing, sitting, rearing and eye opening. After the observation, placing reflex, cliff aversion, negative geotaxis, righting response and forelimb grasping testing were performed. The first appearance of the behavior or reflex continued for two consecutive days was recorded.
The open field test was performed to gauge locomotor activity on postnatal day 21 at which the mouse was considered juvenile. Mice were individually placed in a 41 cm (L)×41 cm (W)×30 cm (H) plastic box. The “central area” was defined as a 20.5 cm×20.5 cm square in the center of the box. The rest of the area was defined as the “peripheral area” (see FIG. 25A). The time each mouse spent on exploring the central and periphery parts and the number of rearing behaviors in each respective area were recorded for the first 5 minutes and 30 minutes.
At the age of 10-11 weeks, all mice were tested in several behavioral tasks in the order of: zero mazes, barnes maze and fear conditioning. These tasks were performed to examine the basal anxiety level, spontaneous locomotor activity, motor learning, spatial learning and associative memory of the mice. The mice were given 5 days for rest between each behavioral test.
“Time in open” measures mice anxiety due to their tendency to avoid open spaces. The anxiety was measured by recording the time spent in the open vs. enclosed space. Increased anxiety correlates to decreased time in the open. Open/Closed transitions measure overall activity. Increased transitions equate to greater activity.
Measures the ability to learn with visual cues. Time to Target measures the time taken to find the target hole in an arena with 19 other holes and several visual cues. The Barnes Maze is easier to set-up and probably less stressful and a valid alternative to the Water Maze to study spatial memory. […]

[2] = system: middle cerebral artery occlusion (MCAO); conditions: mouse, in vivo

With COC(=O)[C@@H]1C[C@H](OC(C)=O)C(=O)[C@H]2[C@@]1(C)CC[C@H]1C(=O)O[C@H](c3ccoc3)C[C@]21C [Salvinorin A] as the compound, how does the mortality rate ([1]; 0.5 mg/kg i.p. before 120 min hypoxia (8% oxygen), postnatal day 1, hypoxia group 70%) read?
Its mortality rate is 38.5%.

And the “delayed appearance of forelimb grasping, cliff aversion, righting response and eye opening” value ([1]; 0.5 mg/kg i.p. before hypoxia)?
The value was “prevented these delays”.

What about the “pups survived after HI injury” value ([1]; 0.5 mg/kg i.p. before hypoxia) of the same compound?
Its value is 16 out of 26.

And the “body weight difference among groups” value ([1]; P7, P14 and P21)?
Its value is “no significant difference was observed among groups”.

And the “time in the central area, open field testing” value ([1]; P21)?
The value was “not statistically significant”.

And the rearing test ([1]; P21, first 5 minutes and 30 minutes)?
The rearing test was “impairment was not observed”.

What about the “Barnes maze spatial memory” value ([1]; age 10-11 weeks) of the same compound?
The value was “no significant difference among groups”.

And the “elevated zero maze: time in open arm and open/closed transitions, SA vs hypoxia” value ([1]; age 10-11 weeks)?
Its value is “no significant differences”.

And the fear conditioning ([1]; age 10-11 weeks)?
Its fear conditioning is “no significant differences were observed among groups”.

And the “first appearance of rearing without support” value ([1]; hypoxia 19.86±0.29, control 18.18±0.44, mean±SEM, listed as SA)?
The value was 18.69 ± 0.38 days and 18.69 ± 0.3843 days.

And the “other developmental parameters (crawling, walking, running, head point and sniffing, sitting, rearing with support, negative geotaxis, placing reflex)” value ([1]; mouse, in vivo)?
The value was “no statistical significance”.

And the “body weight vs hypoxia group” value ([1]; postnatal day 2 and day 3)?
Its value is “increased body weight”.

And the “blood brain barrier disruption and vascular leakage (Evans blue extravasation)” value [2]?
The value was “reduced the disruption and leakage”.

And the “infarct size (TTC stains)” value [2]?
Its value is “dose-dependent reduction”.

And the “motor function, grip strength score” value [2]?
The value was “dose-dependent improvements in motor function”.

And the neurobehavior [2]?
Its neurobehavior is “dose-dependent improvements”.

What about the overall motor function [2] of the same compound?
The overall motor function was “improves overall motor function”.

What about the “protective effect on leakage with norbinaltorphimine” value [2] of the same compound?
The value was “inhibited the protective effect of salvinorin A”.
